Results reported in article PMC3688238, “The effect of different dosing regimens of motesanib on the gallbladder: a randomized phase 1b study in patients with advanced solid tumors” (BMC Cancer, 2013).
Read-outs that look alike come from different tables or passages of the source.

Assays:
Format in all cases: in vivo, human
[1] = test system: patients with advanced metastatic solid tumors; assay: Adverse events (NCI CTCAE version 3.0)
Description: AEs occurring during treatment and through the safety follow-up were recorded and graded according to the National Cancer Institute Common Terminology Criteria for Adverse Events (version 3.0).

[2] = test system: advanced metastatic solid tumors; assay: Tumor response per RECIST (investigator)
Description: Tumor response per RECIST [27] was assessed by the investigators. Magnetic resonance imaging or CT scans were performed at screening, every 6 weeks thereafter, and at the safety follow-up. Complete or partial responses were confirmed >28 days after the initial response assessment throughout the study. Patients who discontinued without a postbaseline tumor assessment or confirmation were considered nonresponders.
(§1) The ultrasound and CCK-HIDA gallbladder analysis sets, which included all randomized patients who received ≥1 dose of motesanib and had baseline and ≥1 evaluable follow-up ultrasound or CCK-HIDA, respectively, were used for the principal analysis of endpoints related to gallbladder size and characteristics. For each dosing scheme, estimates for the mean and maximum change from baseline in gallbladder size (volume as measured by ultrasound) and function (ejection fraction as measured by CCK-HIDA scan) were calculated. Mean change from baseline was calculated by taking the difference between the baseline gallbladder measurement and the average gallbladder measurement observed during study treatment. The mean (95% CI) difference was then calculated across all patients for each treatment arm, and for the whole study population. Maximum change from baseline in gallbladder size or volume was calculated by taking the difference between the baseline gallbladder measurement and the maximum gallbladder measurement observed during study treatment. The mean (95% CI) maximum change from baseline was then calculated across all patients for each treatment arm, and for the whole study population. Reversibility of changes in gallbladder volume and ejection fraction were evaluated calculating changes between the last on-treatment measurement and the last available measurement following the discontinuation of motesanib. Covariates (treatment, age, sex, body mass index, and nonsteroidal anti-inflammatory drug [NSAID] use) were explored in a linear regression model for potential relationships with gallbladder volume. Objective response was assessed for the safety analysis set, including only patients with measureable disease at baseline.

[3] = Pharmacokinetic analysis of plasma motesanib concentrations (noncompartmental); conditions: for concentration at 24 h: read-out: Median Cmin (trough plasma concentration at 24 hours postdose); for Cmax: po, read-out: Median Cmax
Description: Blood samples were collected as follows: predose and at 30 minutes and 1, 2, 4, 6, 8, and 24 hours postdose on day 1 of weeks 1 and 4, and predose and 1 to 2 hours postdose at weeks 2, 3, and 7 and every 3 weeks thereafter. […] Motesanib concentrations were assessed as described previously.

[4] = test system: gallbladder; assay: Specific gallbladder findings per independent ultrasound review
Description: (§2) Gallbladder volume was assessed by ultrasound after a ≥8 hours fast at screening (within 21 days prior to randomization) and before the motesanib morning dose on days 8 and 15 of cycle 1, on day 1 of cycles 2 and 3, every 6 weeks thereafter, and at the safety follow-up (30 to 33 days after the last dose). Ultrasound was performed weekly when motesanib was withheld and weekly for 4 weeks following treatment discontinuation. Gallbladder ultrasound measurements were assessed by independent central radiologic review (MedQIA, Los Angeles, CA, USA). Gallbladder ejection fraction was assessed by investigators or other study site personnel using CCK-HIDA at screening (within 21 days of randomization), on day 1 of cycle 2, day 1 of cycle 6 (±3 days), and at the safety follow-up. Study-specific training and standard operating procedures were supplied to all radiology technicians.

[5] = test system: gallbladder; assay: Gallbladder function (ejection fraction) by CCK-HIDA, investigator assessment; conditions: for Gallbladder ejection fraction, mean change from baseline (95% CI): CCK-HIDA
Description: as §2, §1

[6] = test system: gallbladder; assay: Gallbladder size (volume) by ultrasound, independent central review; conditions: for Mean change in gallbladder volume after discontinuation of motesanib (95% CI): last on-treatment to last available off-treatment measurement; for Gallbladder volume, mean change from baseline (95% CI): ultrasound
Description: as §2, §1

[7] = Arm B, 75 mg BID 2 wk on/1 wk off
[8] = Arm C, 75 mg BID 5 d on/2 d off
[9] = Arm A, 125 mg QD, post baseline, n = 23
[10] = Arm A, 125 mg QD, post treatment, n = 16
[11] = Arm B, 75 mg BID 2 wk on/1 wk off, post baseline, n = 11
[12] = Arm B, 75 mg BID 2 wk on/1 wk off, post treatment, n = 9
[13] = Arm C, 75 mg BID 5 d on/2 d off, post baseline, n = 11
[14] = Arm C, 75 mg BID 5 d on/2 d off, post treatment, n = 8
[15] = Arm B, 75 mg BID 2 wk on/1 wk off, n = 3
[16] = Arm B, 75 mg BID 2 wk on/1 wk off, n = 10
[17] = Arm C, 75 mg BID 5 d on/2 d off, n = 2
[18] = Arm C, 75 mg BID 5 d on/2 d off, n = 10
[19] = Arm B, 75 mg BID 2 wk on/1 wk off, n = 9
[20] = Arm B, 75 mg BID 2 wk on/1 wk off, n = 11
[21] = Arm C, 75 mg BID 5 d on/2 d off, n = 8
[22] = Arm C, 75 mg BID 5 d on/2 d off, n = 11

CC1(C)CNc2cc(NC(=O)c3cccnc3NCc3ccncc3)ccc21 [Motesanib]
Incidence of grade ≥3 treatment-related AEs ([1]; Arm A, 125 mg QD): 32% | Patients with serious grade 3 acute cholecystitis resulting in cholecystectomy ([1]; Arm A, approximately 1 month after treatment initiation): one | Patients with cholecystitis that resolved after treatment discontinuation ([1]; Arm A, grades 1, 2, 3, n = 1 each): Three | Patients with grade 1 gallbladder disorders (gallbladder dysfunction, gallbladder wall thickening) ([1]; Arm A, ongoing at safety follow-up): two | Incidence of grade ≥3 treatment-related AEs [1, 7]: 42% | Incidence of grade ≥3 treatment-related AEs [1, 8]: 33% | Patients with right upper quadrant pain during the study ([1]; all patients): Twelve | Patients with grade 4 AEs ([1]; all patients (one each in Arms B and C)): Two | Gallbladder toxicity events (all considered treatment-related), incidence ([1]; occurred only in Arm A, 125 mg QD): 12% | Durable (≥24 weeks) stable disease ([2]; Arm A, n = 6): 25% | Progressive disease ([2]; Arm A, n = 8): 33% | Stable disease as best tumor response ([2]; Arm A, n = 15): 63% | Durable (≥24 weeks) stable disease ([2]; Arm B, n = 1): 8% | Progressive disease ([2]; Arm B, n = 3): 25% | Stable disease as best tumor response ([2]; Arm B, n = 6): 50% | Patients with confirmed partial response ([2]; Arm B, stage IV thyroid cancer): one | Durable (≥24 weeks) stable disease ([2]; Arm C, n = 1): 9% | Progressive disease ([2]; Arm C, n = 4): 36% | Stable disease as best tumor response ([2]; Arm C, n = 7): 64% | Complete responses ([2]; all patients): No complete responses were achieved | Durable (≥24 weeks) stable disease ([2]; all patients (8 patients)): 17% | Progressive disease ([2]; all patients (fifteen patients)): 32% | Stable disease as best tumor response ([2]; all patients (twenty-eight patients)): 60% | Overall objective response rate ([2]; all patients with measurable disease at baseline, RECIST): 2% | Median motesanib concentration after wash-out period ([3]; Arm B, after the 1-week wash-out period, limit of quantitation 0.2 ng/mL): < 0.2 ng/mL | Median motesanib concentration after wash-out period ([3]; Arm C, after the 2-day wash-out period): 1.2 ng/mL | Drug accumulation ([3]; after QD administration): no evidence of drug accumulation | concentration at 24 h ([3]; human, plasma, oral, 75 mg, Arm B, 75 mg BID 2 wk on/1 wk off): 60 ng/mL | concentration at 24 h ([3]; human, plasma, oral, 75 mg, Arm C, 75 mg BID 5 d on/2 d off): 35 ng/mL | concentration at 24 h ([3]; human, plasma, oral, 125 mg, Arm A, 125 mg QD): 14 ng/mL | AUC ([3]; human, plasma, oral, range across the three dosing regimens, read-out: Median AUC): 1900 to 3000 ng·h/mL | Cmax ([3]; human, plasma, 75 mg, Arm B, 75 mg BID 2 wk on/1 wk off, plasma, oral): 323 ng/mL | Cmax ([3]; human, plasma, 75 mg, Arm C, 75 mg BID 5 d on/2 d off, plasma, oral): 355 ng/mL | Cmax ([3]; human, plasma, 125 mg, Arm A, 125 mg QD, plasma, oral): 630 ng/mL | Incidence of biliary sludge ([4]; Arm A, 125 mg QD): 39% | Gallstones, patient incidence ([4]; Arm A, 125 mg QD, post baseline (any point during treatment), n = 23): 4 (17) n (%) | Common duct dilation, patient incidence [4, 9]: 0 (0) n (%) | Pericholecystic fluid, patient incidence [4, 9]: 1 (4) n (%) | Sludge, patient incidence [4, 9]: 9 (39) n (%) | Gallstones, patient incidence ([4]; Arm A, 125 mg QD, post treatment (last available off-treatment assessment), n = 16): 3 (19) n (%) | Common duct dilation, patient incidence [4, 10]: 0 (0) n (%) | Pericholecystic fluid, patient incidence [4, 10]: 0 (0) n (%) | Sludge, patient incidence [4, 10]: 4 (25) n (%) | Incidence of biliary sludge [4, 7]: 36% | Common duct dilation, patient incidence [4, 11]: 0 (0) n (%) | Gallstones, patient incidence [4, 11]: 2 (18) n (%) | Pericholecystic fluid, patient incidence [4, 11]: 1 (9) n (%) | Sludge, patient incidence [4, 11]: 4 (36) n (%) | Common duct dilation, patient incidence [4, 12]: 0 (0) n (%) | Gallstones, patient incidence [4, 12]: 2 (22) n (%) | Pericholecystic fluid, patient incidence [4, 12]: 0 (0) n (%) | Sludge, patient incidence [4, 12]: 4 (44) n (%) | Incidence of biliary sludge [4, 8]: 27% | Common duct dilation, patient incidence [4, 13]: 0 (0) n (%) | Gallstones, patient incidence [4, 13]: 0 (0) n (%) | Pericholecystic fluid, patient incidence [4, 13]: 0 (0) n (%) | Sludge, patient incidence [4, 13]: 3 (27) n (%) | Common duct dilation, patient incidence [4, 14]: 0 (0) n (%) | Gallstones, patient incidence [4, 14]: 0 (0) n (%) | Pericholecystic fluid, patient incidence [4, 14]: 0 (0) n (%) | Sludge, patient incidence [4, 14]: 0 (0) n (%) | Patients who developed de novo gallstones during treatment ([4]; all arms): Two | Mean change in ejection fraction after discontinuation of motesanib (95% CI) ([5]; Arm A, 125 mg QD, n = 5): 10.8 (−45.8 to 67.4) % | Mean change in ejection fraction from baseline to last available off-treatment measurement (95% CI) ([5]; Arm A, 125 mg QD, n = 5): −16.6 (−53.3 to 20.1) % | Gallbladder ejection fraction, maximum change from baseline (95% CI) ([5]; Arm A, 125 mg QD, n = 21): −30.1 (−46.4 to −13.7) % | Gallbladder ejection fraction, mean change from baseline (95% CI) ([5]; Arm A, 125 mg QD, n = 21): −24.1 (−38.2 to −9.9) % | Mean change in ejection fraction after discontinuation of motesanib (95% CI) [5, 15]: 63.0 (24.0 to 102.0) % | Mean change in ejection fraction from baseline to last available off-treatment measurement (95% CI) [5, 15]: 7.7 (−3.8 to 19.1) % | Gallbladder ejection fraction, maximum change from baseline (95% CI) [5, 16]: −26.5 (−45.0 to −8.0) % | Gallbladder ejection fraction, mean change from baseline (95% CI) [5, 16]: −25.0 (−43.9 to −6.1) % | Mean change in ejection fraction after discontinuation of motesanib (95% CI) [5, 17]: 46.0 (−347.9 to 439.9) % | Mean change in ejection fraction from baseline to last available off-treatment measurement (95% CI) [5, 17]: 14.5 (−55.4 to 84.4) % | Gallbladder ejection fraction, maximum change from baseline (95% CI) [5, 18]: −6.5 (−29.8 to 16.8) % | Gallbladder ejection fraction, mean change from baseline (95% CI) [5, 18]: −3.3 (−25.0 to 18.4) % | Gallbladder ejection fraction change from baseline, median ([5]; across all patients): −18.0% | Gallbladder ejection fraction change from baseline, range ([5]; across all patients): −81% to 67 | Gallbladder ejection fraction decrease from baseline, mean ([5]; across all patients, from 61.3% at baseline): 19.2% | Mean change in gallbladder volume from baseline to last available off-treatment measurement (95% CI) ([6]; Arm A, 125 mg QD, n = 16): 10.4 (−10.0 to 30.8) cc | Mean change in gallbladder volume after discontinuation of motesanib (95% CI) ([6]; Arm A, 125 mg QD, n = 16): −8.5 (−38.8 to 21.7) cc | Gallbladder volume, maximum change from baseline (95% CI) ([6]; Arm A, 125 mg QD, n = 23): 45.6 (20.2–70.9) cc | Gallbladder volume, mean change from baseline (95% CI) ([6]; Arm A, 125 mg QD, n = 23): 17.7 (6.4–28.9) cc | Mean change in gallbladder volume from baseline to last available off-treatment measurement (95% CI) [6, 19]: −14.4 (−31.1 to 2.4) cc | Mean change in gallbladder volume after discontinuation of motesanib (95% CI) [6, 19]: −16.2 (−37.4 to 5.1) cc | Gallbladder volume, maximum change from baseline (95% CI) [6, 20]: 74.4 (41.3–107.4) cc | Gallbladder volume, mean change from baseline (95% CI) [6, 20]: 26.8 (11.5–42.1) cc | Mean change in gallbladder volume from baseline to last available off-treatment measurement (95% CI) [6, 21]: 7.1 (−28.9 to 43.0) cc | Mean change in gallbladder volume after discontinuation of motesanib (95% CI) [6, 21]: −7.4 (−67.1 to 52.4) cc | Gallbladder volume, maximum change from baseline (95% CI) [6, 22]: 67.3 (30.8–103.8) cc | Gallbladder volume, mean change from baseline (95% CI) [6, 22]: 26.9 (8.8–45.1) cc | Gallbladder volume change from baseline during treatment, median ([6]; across all patients): 17.3 cc | Gallbladder volume change from baseline during treatment, range ([6]; across all patients): −43.3 to 83.2 cc | Gallbladder volume increase from baseline during treatment, mean ([6]; across all patients, from 38.6 cc at baseline): 22.2 cc
